In paper PMC10353060, “A Chemical Chaperone Restores Connexin 26 Mutant Activity” (ACS Pharmacology & Translational Science, 2023):

Key:
[1] = target: T1, connexin 26 (Cx26) K188N (Homo sapiens, UniProt P29033, K188N); assay: microscale thermophoresis (MST); type: binding; details: read-out: EC50
T1 construct: gene GJB2; purified recombinant connexin channel, His-tag Cy5 labeled

[2] = target: T2, connexin 26 (Cx26) (Homo sapiens, UniProt P29033); assay: microscale thermophoresis (MST); type: binding; details: read-out: EC50
T2 construct: gene GJB2; purified recombinant WT connexin channel, His-tag Cy5 labeled

Kd [1]: 4.75 ± 1 µM
Kd [2]: 19.3 ± 7.3 µM
Structure (SMILES): O=C(Nc1ncc([C@H](c2ccccc2Cl)N2CC[C@@H](O)C2)s1)C1(c2ccc3c(c2)OCO3)CC1 [compound 3, 1-(benzo[d][1,3]dioxol-5-yl)-N-(5-((S)-(2-chlorophenyl)((R)-3-hydroxypyrrolidin-1-yl)methyl)thiazol-2-yl) cyclopropanecarboxamide]
